In paper PMC8584349 (International Journal of Molecular Sciences, 2021):

Experiments:
Details in all cases: 12 h
[1] = system: SARS-CoV-2 B.1.351 (Beta) PsV
[2] = system: SARS-CoV-2 B.1.1.7 (Alpha) PsV
[3] = system: SARS-CoV-2 B.1.617.2 (Delta) PsV
[4] = system: SARS-CoV-2 P.1 (Gamma) PsV

Q: Which results are given for `CC[C@H](C)[C@H](NC(=O)[C@H](C)NC(=O)[C@H](CCC(=O)O)NC(=O)[C@H](CCC(=O)O)NC(=O)[C@H](CC(C)C)NC(=O)[C@H](CCCCN)NC(=O)[C@H](CCCCN)NC(=O)[C@H](CCSC)NC(=O)[C@H](CCC(=O)O)NC(=O)[C@H](Cc1ccc(O)cc1)NC(=O)[C@H](CCC(=O)O)NC(=O)[C@H](CC(C)C)NC(=O)[C@H](CC(=O)O)NC(=O)[C@H](CC(C)C)NC(=O)[C@H](Cc1ccccc1)NC(=O)[C@@H](NC(=O)[C@@H](NC(=O)[C@H](CC(N)=O)NC(=O)[C@@H](NC(=O)[C@H](CCC(N)=O)NC(=O)[C@H](CC(=O)O)NC(=O)[C@H](CC(C)C)NC(=O)[C@@H](N)CO)[C@@H](C)CC)C(C)C)[C@@H](C)O)C(=O)N[C@@H](CCCCN)C(=O)N[C@@H](CCCCN)C(=O)N[C@@H](CC(C)C)C(=O)N[C@@H](CCC(=O)O)C(=O)N[C@@H](CCC(=O)O)C(=O)N[C@@H](CO)C(=O)N[C@@H](Cc1ccc(O)cc1)C(=O)N[C@H](C(=O)N[C@@H](CC(=O)O)C(=O)N[C@@H](CC(C)C)C(=O)N[C@@H](CCCCN)C(=O)N[C@@H](CCC(=O)O)C(=O)N[C@@H](CC(C)C)C(=O)O)[C@@H](C)CC` [EK1]?
A: IC50 [1]: 2290 nM; IC50 [2]: 4610 nM; IC50 [3]: 480 nM; IC50 [4]: 1320 nM
